pIC50: −log10 of the molar value.
Columns and labels:
PC-3 [1] = test: Antiproliferative activity against androgen-insensitive human PC-3 cells assessed as reduction in cell viability incubated for 3 days by WST-1 assay; format: functional, cell-based; settings: PC-3, 72 h
PC-3 [2] = test: Antiproliferative activity against Docetaxel-resistant human PC-3 cells assessed as reduction in cell viability incubated for 3 days by WST-1 assay; format: functional, cell-based; settings: PC-3, 72 h
DU-145 [3] = test: Antiproliferative activity against androgen-insensitive human DU-145 cells assessed as reduction in cell viability incubated for 3 days by WST-1 assay; format: functional, cell-based; settings: DU-145, 72 h
DU-145 [4] = test: Antiproliferative activity against Docetaxel-resistant human DU-145 cells assessed as reduction in cell viability incubated for 3 days by WST-1 assay; format: functional, cell-based; settings: DU-145, 72 h
LNCaP = test: Antiproliferative activity against androgen-insensitive human LNCaP cells assessed as reduction in cell viability incubated for 3 days by WST-1 assay; format: functional, cell-based; settings: 72 h
[5] = Resistance index, ratio of IC50 for antiproliferative activity against human PC-3/DTX cells to IC50 for antiproliferative activity against human PC-3 cells; format: functional
[6] = Resistance index, ratio of IC50 for antiproliferative activity against human DU145/DTX cells to IC50 for antiproliferative activity against human DU145 cells; format: functional

Structure (SMILES)	pIC50 (PC-3 [1])	pIC50 (PC-3 [2])	pIC50 (DU-145 [3])	pIC50 (DU-145 [4])	pIC50 (LNCaP)	Ratio IC50 [5]	Ratio IC50 [6]
C/C1=C/C=C/C(=O)N[C@@H](CO)C/C(C)=C/COCC/C=C/C(=O)C1	< 4.90	< 4.90	4.95	< 4.90	< 4.90	–	–
CC(=O)O[C@@]12CO[C@@H]1C[C@H](O)[C@@]1(C)C(=O)[C@H](O)C3=C(C)[C@@H](OC(=O)[C@H](O)[C@@H](NC(=O)OC(C)(C)C)c4ccccc4)C[C@@](O)([C@@H](OC(=O)c4ccccc4)[C@H]21)C3(C)C [DOCETAXEL ANHYDROUS]	–	5.63	–	–	–	–	–
COc1ccc(COC[C@H]2C/C(C)=C/COCC/C=C/C(=O)C/C(C)=C\C=C\C(=O)N2)cc1	5.11	5.36	5.31	5.13	5.20	0.57	1.51
C/C1=C/C=C/C(=O)N[C@@H](C=O)C/C(C)=C/COCC/C=C/C(=O)C1	5.01	4.99	5.07	4.99	4.96	1.05	1.2

Reference: ChEMBL document CHEMBL4819058, “An amide mimic of desTHPdactylolide: Total synthesis and antiproliferative evaluation” (Bioorg Med Chem Lett, 2021)
